Test results as given in patent publication US20080200454A1, “CARBON-LINKED TETRAHYDRO-PYRAZOLO-PYRIDINE MODULATORS OF CATHEPSIN S” (priority 2007, published 2008).

molecular target: Recombinant human cathepsin S (CatS) (Homo sapiens, UniProt P25774); test: Recombinant human cathepsin S (CatS) inhibition assay, fluorogenic substrate Z-Valine-Valine-Arginine-AMC; details: not given;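 further: Baculovirus-expressed CatS in pH 5.0 sodium acetate buffer with DTT and NaCl, fluorescence read each minute over 20 min, inhibition derived from rate slope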
Sequence (P25774 115-331): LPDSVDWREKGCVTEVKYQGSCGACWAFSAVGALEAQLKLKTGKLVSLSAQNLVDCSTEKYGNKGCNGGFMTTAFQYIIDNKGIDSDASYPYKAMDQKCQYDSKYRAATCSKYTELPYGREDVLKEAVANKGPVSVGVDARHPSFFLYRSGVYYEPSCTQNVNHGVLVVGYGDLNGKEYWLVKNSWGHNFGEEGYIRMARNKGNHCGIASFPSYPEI

| IC50 | Compound |
| --- | --- |
| 20 nM | NC(=O)C(=O)N1CCc2c(c(-c3ccc(Cl)c(C#Cc4ccc(CNCc5ccc(Cl)cc5)cc4)c3)nn2CCCN2CCN(c3ccccc3)CC2)C1 [Example 429, 2-{3-(4-Chloro-3-{[4-({[(4-chlorophenyl)methyl]amino}methyl)phenyl]ethynyl}phenyl)-1-[3-(4-phenylpiperazin-1-yl)propyl]-1,4,6,7-tetrahydro-5H-pyrazolo[4,3-c]pyridin-5-yl}-2-oxoacetamide] |
| 630 nM | CC(C)(C)OC(=O)N1Cc2cc(C#Cc3cc(-c4nn(CCCN5CCOCC5)c5c4CN(S(C)(=O)=O)CC5)ccc3Cl)ccc2C[C@H]1C(=O)O [Example 191, (3S)-7-({2-Chloro-5-[5-(methylsulfonyl)-1-(3-morpholin-4-ylpropyl)-4,5,6,7-tetrahydro-1H-pyrazolo[4,3-c]pyridin-3-yl]phenyl}ethynyl)-2-{[(1,1-dimethylethyl)oxy]carbonyl}-1,2,3,4-tetrahydroisoquinoline-3-carboxylic acid] |
| 70 nM | NC(=O)N1CCc2c(c(-c3ccc(Cl)c(C#Cc4ccc(COCc5cccnc5)cc4)c3)nn2CCCN2CCSCC2)C1 [Example 161, 3-{4-Chloro-3-[(4-{[(pyridin-3-ylmethyl)oxy]methyl]phenyl)ethynyl]phenyl}-1-(3-thiomorpholin-4-ylpropyl)-1,4,6,7-tetrahydro-5H-pyrazolo[4,3-c]pyridine-5-carboxamide] |
| 30 nM | NC(=O)C(=O)N1CCc2c(c(-c3ccc(Cl)c(C#Cc4ccc(Cl)c(CN5CCOCC5)c4)c3)nn2CCCN2CCCCC2)C1 [Example 601, 2-[3-(4-Chloro-3-{[4-chloro-3-(morpholin-4-ylmethyl)phenyl]ethynyl}phenyl)-1-(3-piperidin-1-ylpropyl)-1,4,6,7-tetrahydro-5H-pyrazolo[4,3-c]pyridin-5-yl]-2-oxoacetamide] |
| 10 nM | CN1CCC(C2CCN(C[C@H](O)Cn3nc(-c4ccc(Cl)c(C#Cc5ccc(Cl)cc5)c4)c4c3CCN(S(C)(=O)=O)C4)CC2)CC1 [Example 240, (2S)-1-[3-{4-Chloro-3-[(4-chlorophenyl)ethynyl]phenyl}-5-(methylsulfonyl)-4,5,6,7-tetrahydro-1H-pyrazolo[4,3-c]pyridin-1-yl]-3-(1′-methyl-4,4′-bipiperidin-1-yl)propan-2-ol] |
| 1150 nM | CS(=O)(=O)N1CCc2c(c(-c3ccc(Cl)c(CCCNS(=O)(=O)c4ccccc4Cl)c3)nn2CCCN2CCC(N3CCCC3=O)CC2)C1 [Example 95, 2-Chloro-N-{3-[2-chloro-5-(5-methanesulfonyl-1-{3-[4-(2-oxo-pyrrolidin-1-yl)-piperidin-1-yl]-propyl}-4,5,6,7-tetrahydro-1H-pyrazolo[4,3-c]pyridin-3-yl)-phenyl]-propyl}-benzenesulfonamide] |
| 490 nM | CC(=O)NCc1ccc(C#Cc2cc(-c3nn(CCCN4CCOCC4)c4c3CN(S(C)(=O)=O)CC4)ccc2Cl)cc1 [Example 72, N-(4-{2-Chloro-5-[5-methanesulfonyl-1-(3-morpholin-4-yl-propyl)-4,5,6,7-tetrahydro-1H-pyrazolo[4,3-c]pyridin-3-yl]-phenylethynyl}-benzyl)-acetamide] |
| 2060 nM | CS(=O)(=O)N1CCc2c(c(-c3ccc(Cl)c(CCCN4CCCC4)c3)nn2CCCN2CCC(N3CCCC3=O)CC2)C1 [Example 101, 1-[1-(3-{3-[4-Chloro-3-(3-pyrrolidin-1-yl-propyl)-phenyl]-5-methanesulfonyl-4,5,6,7-tetrahydro-pyrazolo[4,3-c]pyridin-1-yl}-propyl)-piperidin-4-yl]-pyrrolidin-2-one] |
| 70 nM | NC(=O)N1CCc2c(c(-c3ccc(Cl)c(C#Cc4ccc(C(=O)NC[C@@H]5CCCN5)cc4)c3)nn2CCCN2CCSCC2)C1 [Example 609, 3-{4-Chloro-3-[(4-{[(2S)-pyrrolidin-2-ylmethyl]carbamoyl}phenyl)ethynyl]phenyl}-1-(3-thiomorpholin-4-ylpropyl)-1,4,6,7-tetrahydro-5H-pyrazolo[4,3-c]pyridine-5-carboxamide] |
| 160 nM | CC(=O)N1CCc2c(c(-c3ccc(Cl)c(C#Cc4ccc(CNCc5ccc(Cl)cc5)cc4)c3)nn2CCCN2CCSCC2)C1 [Example 412, 1-[4-({5-[5-Acetyl-1-(3-thiomorpholin-4-ylpropyl)-4,5,6,7-tetrahydro-1H-pyrazolo[4,3-c]pyridin-3-yl]-2-chlorophenyl}ethynyl)phenyl]-N-[(4-chlorophenyl)methyl]methanamine] |
| 1400 nM | CS(=O)(=O)N1CCc2c(c(-c3ccc(Cl)c(CCCc4ccccc4)c3)nn2CCCN2CCOCC2)C1 [Example 63, 3-[4-Chloro-3-(3-phenyl-propyl)-phenyl]-5-methanesulfonyl-1-(3-morpholin-4-yl-propyl)-4,5,6,7-tetrahydro-1H-pyrazolo[4,3-c]pyridine] |
| 1350 nM | CS(=O)(=O)N1CCc2c(c(-c3ccc(Cl)c(CCCCO)c3)nn2CCCN2CCC(N3CCCC3=O)CC2)C1 [Example 311, 1-[1-(3-{3-[4-Chloro-3-(4-hydroxybutyl)phenyl]-5-(methylsulfonyl)-4,5,6,7-tetrahydro-1H-pyrazolo[4,3-c]pyridin-1-yl}propyl)piperidin-4-yl]pyrrolidin-2-one] |

same assay, conditions: CatS IC50

| Compound | IC50 |
| --- | --- |
| C[C@H]1COCCN1CCCn1nc(-c2ccc(Cl)c(C#Cc3ccc(C(=O)NCCN4CCOCC4)cc3)c2)c2c1CCN(C(=O)C(N)=O)C2 [Example 169, 4-{[5-(5-[Amino(oxo)acetyl]-1-{3-[(3S)-3-methylmorpholin-4-yl]propyl}-4,5,6,7-tetrahydro-1H-pyrazolo[4,3-c]pyridin-3-yl)-2-chlorophenyl]ethynyl}-N-(2-morpholin-4-ylethyl)benzamide] | 50 nM |
| CS(=O)(=O)N1CCc2c(c(-c3ccc(Cl)c(C#Cc4ccc(Cl)c(CN5CCOCC5)c4)c3)nn2CCCN2CCCCC2)C1 [Example 604, 3-(4-Chloro-3-{[4-chloro-3-(morpholin-4-ylmethyl)phenyl]ethynyl}phenyl)-5-(methylsulfonyl)-1-(3-piperidin-1-ylpropyl)-4,5,6,7-tetrahydro-1H-pyrazolo[4,3-c]pyridine] | 80 nM |
| C[C@H]1COCCN1CCCn1nc(-c2ccc(Cl)c(C#Cc3ccc(C(=O)NC[C@@H]4CCCN4)cc3)c2)c2c1CCN(C(=O)C(N)=O)C2 [Example 610, 4-{[5-(5-[Amino(oxo)acetyl]-1-{3-[(3S)-3-methylmorpholin-4-yl]propyl}-4,5,6,7-tetrahydro-1H-pyrazolo[4,3-c]pyridin-3-yl)-2-chlorophenyl]ethynyl}-N-[(2S)-pyrrolidin-2-ylmethyl]benzamide] | 30 nM |
| C[C@H]1COCCN1CCCn1nc(-c2ccc(Cl)c(C#Cc3ccc4c(c3)CCN(C3CC3)C4)c2)c2c1CCN(S(C)(=O)=O)C2 [Example 512, 6-({2-Chloro-5-[1-{3-[(3S)-3-methylmorpholin-4-yl]propyl}-5-(methylsulfonyl)-4,5,6,7-tetrahydro-1H-pyrazolo[4,3-c]pyridin-3-yl]phenyl}ethynyl)-2-cyclopropyl-1,2,3,4-tetrahydroisoquinoline] | 220 nM |
| NC(=O)N1CCc2c(c(-c3ccc(Cl)c(C#Cc4ccc(CNCc5ccc(Cl)cc5)cc4)c3)nn2CCCN2CCCC2)C1 [Example 453, 3-(4-Chloro-3-{[4-({[(4-chlorophenyl)methyl]amino}methyl)phenyl]ethynyl}phenyl)-1-(3-pyrrolidin-1-ylpropyl)-1,4,6,7-tetrahydro-5H-pyrazolo[4,3-c]pyridine-5-carboxamide] | 140 nM |
| NC(=O)N1CCc2c(c(-c3ccc(Cl)c(C#Cc4ccc(Cl)c(CNC5CC5)c4)c3)nn2CCCN2CCSCC2)C1 [Example 605, 3-[4-Chloro-3-({4-chloro-3-[(cyclopropylamino)methyl]phenyl}ethynyl)phenyl]-1-(3-thiomorpholin-4-ylpropyl)-1,4,6,7-tetrahydro-5H-pyrazolo[4,3-c]pyridine-5-carboxamide] | 40 nM |
| CS(=O)(=O)N1CCc2c(c(-c3ccc(Cl)c(C#Cc4ccc(CNCc5ccc(Cl)cc5)cc4)c3)nn2CCCN2CC[C@H](O)C2)C1 [Example 382, (3S)-1-{3-[3-(4-Chloro-3-{[4-({[(4-chlorophenyl)methyl]amino}methyl)phenyl]ethynyl}phenyl)-5-(methylsulfonyl)-4,5,6,7-tetrahydro-1H-pyrazolo[4,3-c]pyridin-1-yl]propyl}pyrrolidin-3-ol] | 110 nM |
| CC(=O)N1CCN(CCCn2nc(-c3ccc(Cl)c(C#Cc4ccc(CNCc5ccc(Cl)cc5)cc4)c3)c3c2CCN(S(C)(=O)=O)C3)CC1 [Example 353, 1-{4-[(5-{1-[3-(4-Acetylpiperazin-1-yl)propyl]-5-(methylsulfonyl)-4,5,6,7-tetrahydro-1H-pyrazolo[4,3-c]pyridin-3-yl}-2-chlorophenyl)ethynyl]phenyl}-N-[(4-chlorophenyl)methyl]methanamine] | 150 nM |
| CS(=O)(=O)N1CCc2c(c(-c3ccc(Cl)c(C#Cc4ccc(CNCC(F)(F)F)cc4)c3)nn2CCCN2CCN(c3ccccc3)CC2)C1 [Example 480, N-({4-[(2-Chloro-5-{5-(methylsulfonyl)-1-[3-(4-phenylpiperazin-1-yl)propyl]-4,5,6,7-tetrahydro-1H-pyrazolo[4,3-c]pyridin-3-yl}phenyl)ethynyl]phenyl}methyl)-2,2,2-trifluoroethanamine] | 100 nM |
| CS(=O)(=O)N1CCc2c(c(-c3ccc(Cl)c(C#Cc4ccc(CNCc5ccc(Cl)cc5)cc4)c3)nn2CCCN2CCN(C(=O)c3ccccc3)CC2)C1 [Example 380, 1-[4-({2-Chloro-5-[5-(methylsulfonyl)-1-{3-[4-(phenylcarbonyl)piperazin-1-yl]propyl}-4,5,6,7-tetrahydro-1H-pyrazolo[4,3-c]pyridin-3-yl]phenyl}ethynyl)phenyl]-N-[(4-chlorophenyl)methyl]methanamine] | 60 nM |

same assay, conditions: CatS IC50, Table 2; average of results obtained

| Compound | IC50 |
| --- | --- |
| CCCCC#Cc1cc(-c2nn(CCCN3CCOCC3)c3c2CN(S(C)(=O)=O)CC3)ccc1Cl [Example 47, 3-(4-Chloro-3-hex-1-ynyl-phenyl)-5-methanesulfonyl-1-(3-morpholin-4-yl-propyl)-4,5,6,7-tetrahydro-1H-pyrazolo[4,3-c]pyridine] | 10600 nM |
